In patent US9714243B2, “4-pyridinonetriazine derivatives as HIV integrase inhibitors” (Merck Sharp & Dohme Corp., priority 2012, dated 2017):
Read-outs that look alike come from different tables or passages of the source.

System: HIV-1 (NL4-3 strain)
Assay: Assay for inhibition of HIV replication (ViKinG; infected MT4-GFP cells)
Format: cell-based
Procedure: Assay for inhibition of HIV replication
MT4-GFP cells (250,000 cells/ml) were bulk-infected with HIV-1 (NL4-3 strain) at low multiplicity of infection (MOI) in RPMI+10% FBS for 24 hours. […] Test compounds were serial-diluted in DMSO on ECHO. The infected MT4-GFP cells were added to a 384-well poly-D-lysine coated black plate with clear bottom in which the diluted test compounds were placed. The cells were seeded at 8,000 cells per well and the final DMSO concentration was 0.4%. The infected cells (Green GFP cells) were quantified at both 24 and 48 hours post incubation using Acumen eX3. Viral reproductive ratio (R0) was determined using the number of infected cells at 48 hours divided by the number of infected cells at 24 hours. Percent viral growth inhibition was calculated by [1−(R−Rtripledrug)/(RDMSO−Rtripledrug)]*100. Compound potency IP or IC50 was determined by a 4-parameter dose response curve analysis.

[1] = Human immunodeficiency virus 1, NL43, MT4-GFP cells infected with HIV-1 NL4-3, 0% normal human serum (NHS), read-out: ViKinG IP (nM) with 0% NHS
[2] = Human immunodeficiency virus 1, NL43, MT4-GFP cells infected with HIV-1 NL4-3, 10% normal human serum (NHS), read-out: ViKinG IP (nM) with 10% NHS
[3] = Human immunodeficiency virus 1, NL43, MT4-GFP cells infected with HIV-1 NL4-3, 100% normal human serum (NHS), read-out: ViKinG IP (nM) with 100% NHS
[4] = MT4-GFP cells infected with HIV-1 NL4-3, 0% normal human serum (NHS), read-out: ViKinG IP (nM) with 0% NHS
[5] = MT4-GFP cells infected with HIV-1 NL4-3, 100% normal human serum (NHS), read-out: ViKinG IP (nM) with 100% NHS
[6] = MT4-GFP cells infected with HIV-1 NL4-3, 10% normal human serum (NHS), read-out: ViKinG IP (nM) with 10% NHS

Structure (SMILES)	IC50 [1] [nM]	IC50 [2] [nM]	IC50 [3] [nM]	further results
COC(=O)[C@@]12C[C@@H]1CCC21N(C)C(=O)c2c(O)c(=O)c(-c3nnc(Cc4ccc(F)cc4F)s3)cn2N1C (mixture of isomers) [Compound 199]	5.42	13.9	202	
CN1C(=O)c2c(O)c(=O)c(-c3nnc(Cc4ccc(F)cc4F)s3)cn2N(C)C12CC[C@@H]1C[C@@]12CO (mixture of isomers) [Compound 200]				IC50 [4]: 2.04 nM; IC50 [5]: 66.7 nM
CN1n2cc(-c3nnc(Cc4ccc(F)cc4F)s3)c(=O)c(O)c2C(=O)NC12CC[C@H]1C[C@H]12 (mixture of isomers) [Compound 201]	3.82		575	
COCCN1C(=O)c2c(O)c(=O)c(-c3nnc(Cc4ccc(F)cc4F)s3)cn2N(C)C12CC[C@H]1C[C@H]12 (mixture of isomers) [Compound 202]	8.36	1180		
COC(=O)[C@@]12C[C@@H]1CCC21NC(=O)c2c(O)c(=O)c(-c3nnc(Cc4ccc(F)cc4F)s3)cn2N1C (mixture of isomers) [Compound 204]	2.81	9.04	146	
CCN1C(=O)c2c(O)c(=O)c(-c3nnc(Cc4ccc(F)cc4F)s3)cn2N(C)C1C(C)(C)C (racemic) [Compound 16]		57	1030	
CCN1C(=O)c2c(O)c(=O)c(-c3nnc(Cc4ccc(F)cc4F)s3)cn2N(C)C1C1(C)CC1 (racemic) [Compound 17]		138	4070	
CCN1C(=O)c2c(O)c(=O)c(-c3nnc(Cc4ccc(F)cc4F)s3)cn2N(C)C1c1cccc(OC)n1 (racemic) [Compound 18]		38.7	1190	
CCN1C(=O)c2c(O)c(=O)c(-c3nnc(Cc4ccc(F)cc4F)s3)cn2N(C)C1CC(C)=O (racemic) [Compound 40]	2.53	374		
CCN1C(=O)c2c(O)c(=O)c(-c3nnc(Cc4ccc(F)cc4F)s3)cn2N(C)C12CCCc1sccc12 (racemic) [Compound 42]	92.5	321		
CCN1C(=O)c2c(O)c(=O)c(-c3nnc(Cc4ccc(F)cc4F)s3)cn2N(C)C12CCCC(=O)C2 (racemic) [Compound 43]	40.7	275		
CCN1C(=O)c2c(O)c(=O)c(-c3nnc(Cc4ccc(F)cc4F)s3)cn2N(C)C12CCCCC(=O)C2 (racemic) [Compound 44]	4.36		240	
CCN1C(=O)c2c(O)c(=O)c(-c3nnc(Cc4ccc(F)cc4F)s3)cn2N(C)C1c1ccc(F)c(OC)c1 (racemic) [Compound 48]	19.6		416	
CC1=CCC2(CC1)N(C)C(=O)c1c(O)c(=O)c(-c3nnc(Cc4ccc(F)cc4F)s3)cn1N2C (racemic) [Compound 71]	16.1	49.5		
CN1C(=O)c2c(O)c(=O)c(-c3nnc(Cc4ccc(F)cc4F)s3)cn2N(C)C12CCCc1occc12 (racemic) [Compound 78]	10.7	93		
CN1C2CCCN2C(=O)c2c(O)c(=O)c(-c3nnc(Cc4ccc(F)cc4F)s3)cn21 (racemic) [Compound 155]		48.7	304	
CN1C2CCCCCN2C(=O)c2c(O)c(=O)c(-c3nnc(Cc4ccc(F)cc4F)s3)cn21 (racemic) [Compound 159]		121		
CN1C2COCCN2C(=O)c2c(O)c(=O)c(-c3nnc(Cc4ccc(F)cc4F)s3)cn21 (racemic) [Compound 160]		22.6	298	
CN1n2cc(-c3nnc(Cc4ccc(F)cc4F)s3)c(=O)c(O)c2C(=O)N2CCCC21CO (racemic) [Compound 163]	8.22		499	
CCN1C(=O)c2c(O)c(=O)c(-c3nnc(Cc4ccc(F)cc4)s3)cn2N(C)C1C1CC1 (racemic) [Compound 217]		66	1020	
CCN1C(=O)c2c(O)c(=O)c(-c3nnc(Cc4ccc(F)cc4)s3)cn2N(C)C1C1CCOCC1 (racemic) [Compound 219]		26.9		
CCN1C(=O)c2c(O)c(=O)c(-c3nnc(Cc4ccc(F)cc4)s3)cn2N(C)C1(C)COC (racemic) [Compound 223]			369	
CCN1C(=O)c2c(O)c(=O)c(-c3nnc(Cc4ccc(F)cc4)s3)cn2N(C)C1(C)C [Compound 5]		31	936	
CCN1C(=O)c2c(O)c(=O)c(-c3nnc(Cc4ccc(F)cc4)s3)cn2N(C)C1c1ccn[nH]1 (stereo not drawn) [Compound 6]		30.8	357	
CCO[C@H]1CC[C@@]2(CC1)N(CC)C(=O)c1c(O)c(=O)c(-c3nnc(Cc4ccc(F)cc4F)s3)cn1N2C [Compound 9]	5.06		141	

Structure (SMILES)	IC50 [1] [nM]	IC50 [2] [nM]	IC50 [3] [nM]	further results
CCN1C(=O)c2c(O)c(=O)c(-c3nnc(Cc4ccc(F)cc4)s3)cn2N(C)C12CC(O)C2 (stereo not drawn) [Compound 11]		231	4200	
CN1C(=O)c2c(O)c(=O)c(-c3nnc(Cc4ccc(F)cc4)s3)cn2N(C)C12CCC(O)CC2 (stereo not drawn) [Compound 13]				IC50 [4]: 23.8 nM; IC50 [6]: 86.9 nM; IC50 [5]: 862 nM
CN1C(=O)c2c(O)c(=O)c(-c3nnc(Cc4ccc(F)cc4)s3)cn2N(C)C12CCC(O)CC2 (stereo not drawn) [Compound 14]				IC50 [4]: 5.37 nM; IC50 [6]: 18.8 nM; IC50 [5]: 198 nM
CCN1C(=O)c2c(O)c(=O)c(-c3nnc(Cc4ccc(F)cc4F)s3)cn2N(C)C1(C)C [Compound 15]	3.49	57.9	971	
CCN1C(=O)c2c(O)c(=O)c(-c3nnc(Cc4ccc(F)cc4F)s3)cn2N(C)C12CCC(C(=O)OC)C2 (stereo not drawn) [Compound 19]		22.8	314	
CCN1C(=O)c2c(O)c(=O)c(-c3nnc(Cc4ccc(F)cc4F)s3)cn2N(C)C12CCC(CC(=O)OC)C2 (stereo not drawn) [Compound 20]		28.7	218	
CCN1C(=O)c2c(O)c(=O)c(-c3nnc(Cc4ccc(F)cc4F)s3)cn2N(C)C12CCC(CC(=O)OC)CC2 (stereo not drawn) [Compound 21]		31.8		
CCN1C(=O)c2c(O)c(=O)c(-c3nnc(Cc4ccc(F)cc4F)s3)cn2N(C)C12CCC1(CCC(=O)N1)CC2 (stereo not drawn) [Compound 22]		292		
CCN1C(=O)c2c(O)c(=O)c(-c3nnc(Cc4ccc(F)cc4F)s3)cn2N(C)C12CCC1(CCC(=O)N1)CC2 (stereo not drawn) [Compound 23]				IC50 [6]: 466 nM
CCN1C(=O)c2c(O)c(=O)c(-c3nnc(Cc4ccc(F)cc4F)s3)cn2N(C)C12CCC(NS(C)(=O)=O)CC2 (stereo not drawn) [Compound 24]		185	1040	
CCOP(=O)(OCC)C1CCCC2(C1)N(CC)C(=O)c1c(O)c(=O)c(-c3nnc(Cc4ccc(F)cc4F)s3)cn1N2C (stereo not drawn) [Compound 25]		40.5		
CCN1C(=O)c2c(O)c(=O)c(-c3nnc(Cc4ccc(F)cc4F)s3)cn2N(C)C12CCC(OC)CC2 (stereo not drawn) [Compound 26]		9.22	115	IC50 [4]: 2.83 nM
CCN1C(=O)c2c(O)c(=O)c(-c3nnc(Cc4ccc(F)cc4F)s3)cn2N(C)C12CCC(OC)CC2 (stereo not drawn) [Compound 27]				IC50 [4]: 9.24 nM; IC50 [6]: 11.5 nM; IC50 [5]: 191 nM
CCN1C(=O)c2c(O)c(=O)c(-c3nnc(Cc4ccc(F)cc4F)s3)cn2N(C)C12CC[C@H](C(=O)OC)[C@H](C)C2 (stereo partly drawn) [Compound 30]				IC50 [6]: 13.1 nM
CCN1C(=O)c2c(O)c(=O)c(-c3nnc(Cc4ccc(F)cc4F)s3)cn2N(C)C12CC[C@H](C(=O)OC)[C@H](C)C2 (stereo partly drawn) [Compound 31]				IC50 [6]: 32.2 nM
CCN1C(=O)c2c(O)c(=O)c(-c3nnc(Cc4ccc(F)cc4F)s3)cn2N(C)C12CC[C@@H](C(=O)OC)[C@H](C)C2 (stereo partly drawn) [Compound 32]		21.1		
CCN1C(=O)c2c(O)c(=O)c(-c3nnc(Cc4ccc(F)cc4F)s3)cn2N(C)C12CC[C@@H](C(=O)OC)[C@H](C)C2 (stereo partly drawn) [Compound 33]				IC50 [6]: 29 nM
CCN1C(=O)c2c(O)c(=O)c(-c3nnc(Cc4ccc(F)cc4F)s3)cn2N(C)C12CCC(c1n[nH]c(=O)o1)CC2 (stereo not drawn) [Compound 34]		23.6	180	
CCOC(=O)C1CC2(CC1(C)C)N(CC)C(=O)c1c(O)c(=O)c(-c3nnc(Cc4ccc(F)cc4F)s3)cn1N2C (stereo not drawn) [Compound 35]		100		
CCN1C(=O)c2c(O)c(=O)c(-c3nnc(Cc4ccc(F)cc4F)s3)cn2N(C)C12C[C@H]1CC(CC(=O)OC)C[C@H]1C2 (stereo partly drawn) [Compound 36]		52.6		
CCOP(=O)(OCC)C1CCC2(C1)N(CC)C(=O)c1c(O)c(=O)c(-c3nnc(Cc4ccc(F)cc4F)s3)cn1N2C (stereo not drawn) [Compound 37]			186	IC50 [6]: 18.2 nM
CCOP(=O)(OCC)C1CCC2(C1)N(CC)C(=O)c1c(O)c(=O)c(-c3nnc(Cc4ccc(F)cc4F)s3)cn1N2C (stereo not drawn) [Compound 38]				IC50 [6]: 95.4 nM
CCN1C(=O)c2c(O)c(=O)c(-c3nnc(Cc4ccc(F)cc4F)s3)cn2N(C)C12CC[C@@H]1C[C@@H]12 (stereo partly drawn) [Compound 39]	0.213	77.7		
CCN1C(=O)c2c(O)c(=O)c(-c3nnc(Cc4ccc(F)cc4F)s3)cn2N(C)C1CC(C)O (stereo not drawn) [Compound 41]	3.15	73.2		
CCN1C(=O)c2c(O)c(=O)c(-c3nnc(Cc4ccc(F)cc4F)s3)cn2N(C)C12CCCCC(O)C2 (stereo not drawn) [Compound 45]	4.07		122	
